Reference: ChEMBL document CHEMBL3431459, “Roche carnitine palmitoyltransferase modulator screening data (supplementary data associated with the publication CHEMBL2216752)”
pIC50: −log10 of the molar value. ≈ marks a conversion by molar mass, not a printed value.

How the values were obtained:
[1] = target: T1, Carnitine O-palmitoyltransferase 1, liver isoform (Rattus norvegicus, UniProt P32198); test: (§1) SUPPLEMENTARY: Inhibition of Carnitine palmitoyltransferase 1, liver isoform
T1 sequence (P32198 whole entry): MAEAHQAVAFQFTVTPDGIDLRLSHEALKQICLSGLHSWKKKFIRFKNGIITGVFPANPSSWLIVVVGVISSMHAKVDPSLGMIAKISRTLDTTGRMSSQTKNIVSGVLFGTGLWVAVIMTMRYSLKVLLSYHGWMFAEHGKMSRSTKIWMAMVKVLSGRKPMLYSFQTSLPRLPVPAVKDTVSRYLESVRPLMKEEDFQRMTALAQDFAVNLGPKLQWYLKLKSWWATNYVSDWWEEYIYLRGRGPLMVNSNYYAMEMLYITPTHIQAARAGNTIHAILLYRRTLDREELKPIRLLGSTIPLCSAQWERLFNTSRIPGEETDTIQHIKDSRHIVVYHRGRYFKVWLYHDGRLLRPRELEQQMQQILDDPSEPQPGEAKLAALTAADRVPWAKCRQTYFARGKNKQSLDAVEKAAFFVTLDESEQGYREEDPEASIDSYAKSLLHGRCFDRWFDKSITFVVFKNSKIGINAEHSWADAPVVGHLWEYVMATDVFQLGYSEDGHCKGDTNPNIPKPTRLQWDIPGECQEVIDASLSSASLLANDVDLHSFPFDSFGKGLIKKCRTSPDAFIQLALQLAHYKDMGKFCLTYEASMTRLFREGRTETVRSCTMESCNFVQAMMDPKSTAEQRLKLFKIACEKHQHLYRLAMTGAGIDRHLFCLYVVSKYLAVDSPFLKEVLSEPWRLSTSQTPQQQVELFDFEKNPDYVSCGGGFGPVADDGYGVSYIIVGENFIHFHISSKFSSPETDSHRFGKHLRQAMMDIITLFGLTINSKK

[2] = target: T2, Carnitine O-palmitoyltransferase 1, liver isoform (Homo sapiens, UniProt P50416); test: as §1
T2 sequence (P50416 whole entry): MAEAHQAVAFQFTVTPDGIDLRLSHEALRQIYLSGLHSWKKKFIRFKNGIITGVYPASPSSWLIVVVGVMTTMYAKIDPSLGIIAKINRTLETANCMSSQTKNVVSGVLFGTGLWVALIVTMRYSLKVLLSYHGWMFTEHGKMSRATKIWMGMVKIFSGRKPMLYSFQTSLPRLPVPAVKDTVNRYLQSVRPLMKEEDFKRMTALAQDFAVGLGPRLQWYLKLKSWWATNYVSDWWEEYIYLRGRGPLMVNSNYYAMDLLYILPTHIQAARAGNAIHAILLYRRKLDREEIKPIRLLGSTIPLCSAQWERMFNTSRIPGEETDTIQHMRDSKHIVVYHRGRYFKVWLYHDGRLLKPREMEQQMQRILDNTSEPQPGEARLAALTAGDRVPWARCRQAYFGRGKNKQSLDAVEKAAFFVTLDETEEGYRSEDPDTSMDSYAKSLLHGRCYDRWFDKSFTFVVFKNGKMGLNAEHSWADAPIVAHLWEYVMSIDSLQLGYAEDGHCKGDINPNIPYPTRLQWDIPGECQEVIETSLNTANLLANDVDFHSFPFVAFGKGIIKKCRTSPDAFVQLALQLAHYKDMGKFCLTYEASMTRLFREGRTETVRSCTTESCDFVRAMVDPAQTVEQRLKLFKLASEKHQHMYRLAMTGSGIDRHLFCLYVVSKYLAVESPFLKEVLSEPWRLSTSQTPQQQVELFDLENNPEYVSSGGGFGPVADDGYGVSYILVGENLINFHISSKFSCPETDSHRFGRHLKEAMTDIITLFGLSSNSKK

[3] = target: T3, Carnitine O-palmitoyltransferase 1, muscle isoform (Homo sapiens, UniProt Q92523); test: SUPPLEMENTARY: Inhibition of Carnitine palmitoyltransferase 1, muscle isoform; design: species or system Muscle tissue
T3 sequence (Q92523 whole entry): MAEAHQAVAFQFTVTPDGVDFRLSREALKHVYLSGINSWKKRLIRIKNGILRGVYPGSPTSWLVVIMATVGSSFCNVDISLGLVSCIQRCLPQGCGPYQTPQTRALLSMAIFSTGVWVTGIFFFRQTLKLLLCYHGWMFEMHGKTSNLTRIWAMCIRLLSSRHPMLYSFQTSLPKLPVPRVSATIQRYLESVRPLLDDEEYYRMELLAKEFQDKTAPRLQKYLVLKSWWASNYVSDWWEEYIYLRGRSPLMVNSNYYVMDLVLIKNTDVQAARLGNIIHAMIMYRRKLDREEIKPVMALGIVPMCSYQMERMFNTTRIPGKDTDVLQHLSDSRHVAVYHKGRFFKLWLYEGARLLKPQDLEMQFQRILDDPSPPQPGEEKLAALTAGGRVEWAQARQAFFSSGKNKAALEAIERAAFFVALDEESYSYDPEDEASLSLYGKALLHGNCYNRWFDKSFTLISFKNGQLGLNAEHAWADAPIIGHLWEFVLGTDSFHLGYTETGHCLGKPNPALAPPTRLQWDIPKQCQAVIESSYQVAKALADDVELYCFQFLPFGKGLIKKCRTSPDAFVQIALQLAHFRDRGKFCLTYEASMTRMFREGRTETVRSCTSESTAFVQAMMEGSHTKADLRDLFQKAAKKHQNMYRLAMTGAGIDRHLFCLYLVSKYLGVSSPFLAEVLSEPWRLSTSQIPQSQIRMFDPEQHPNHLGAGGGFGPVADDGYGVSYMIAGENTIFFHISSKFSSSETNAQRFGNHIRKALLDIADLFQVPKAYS

[4] = SUPPLEMENTARY: Lyophilisation Solubility Assay (LYSA); assay type: physicochemical; conditions: read-out: Kinetic_solubility
[5] = SUPPLEMENTARY: Lipophilicity (log D) Determination by high-throughput shake-flask; assay type: physicochemical; conditions: octanol/water
[6] = target: T4, Carnitine O-palmitoyltransferase 2, mitochondrial (Rattus norvegicus, UniProt P18886); test: (§2) SUPPLEMENTARY: Inhibition of Carnitine palmitoyltransferase 2
T4 sequence (P18886 whole entry): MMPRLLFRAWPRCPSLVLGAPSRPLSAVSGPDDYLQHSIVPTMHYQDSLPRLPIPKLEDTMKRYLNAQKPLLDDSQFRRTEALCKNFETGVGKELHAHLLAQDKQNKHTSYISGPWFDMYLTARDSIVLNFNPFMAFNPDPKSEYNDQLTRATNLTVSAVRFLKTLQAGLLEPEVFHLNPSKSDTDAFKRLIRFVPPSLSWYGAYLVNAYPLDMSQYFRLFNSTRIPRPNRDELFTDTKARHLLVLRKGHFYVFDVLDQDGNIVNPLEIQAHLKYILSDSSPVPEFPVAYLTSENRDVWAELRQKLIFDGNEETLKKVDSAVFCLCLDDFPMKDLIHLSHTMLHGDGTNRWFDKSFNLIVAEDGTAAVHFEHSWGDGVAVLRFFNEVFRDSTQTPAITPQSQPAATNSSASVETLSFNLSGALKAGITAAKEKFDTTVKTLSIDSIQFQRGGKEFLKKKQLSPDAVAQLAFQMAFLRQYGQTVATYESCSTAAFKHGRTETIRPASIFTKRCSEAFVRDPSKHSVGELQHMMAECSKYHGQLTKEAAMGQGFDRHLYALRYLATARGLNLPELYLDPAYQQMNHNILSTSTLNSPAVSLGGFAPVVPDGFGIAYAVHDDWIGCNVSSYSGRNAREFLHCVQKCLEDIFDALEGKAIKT

[7] = target: T5, Carnitine O-palmitoyltransferase 2, mitochondrial (Homo sapiens, UniProt P23786); test: as §2
T5 sequence (P23786 whole entry): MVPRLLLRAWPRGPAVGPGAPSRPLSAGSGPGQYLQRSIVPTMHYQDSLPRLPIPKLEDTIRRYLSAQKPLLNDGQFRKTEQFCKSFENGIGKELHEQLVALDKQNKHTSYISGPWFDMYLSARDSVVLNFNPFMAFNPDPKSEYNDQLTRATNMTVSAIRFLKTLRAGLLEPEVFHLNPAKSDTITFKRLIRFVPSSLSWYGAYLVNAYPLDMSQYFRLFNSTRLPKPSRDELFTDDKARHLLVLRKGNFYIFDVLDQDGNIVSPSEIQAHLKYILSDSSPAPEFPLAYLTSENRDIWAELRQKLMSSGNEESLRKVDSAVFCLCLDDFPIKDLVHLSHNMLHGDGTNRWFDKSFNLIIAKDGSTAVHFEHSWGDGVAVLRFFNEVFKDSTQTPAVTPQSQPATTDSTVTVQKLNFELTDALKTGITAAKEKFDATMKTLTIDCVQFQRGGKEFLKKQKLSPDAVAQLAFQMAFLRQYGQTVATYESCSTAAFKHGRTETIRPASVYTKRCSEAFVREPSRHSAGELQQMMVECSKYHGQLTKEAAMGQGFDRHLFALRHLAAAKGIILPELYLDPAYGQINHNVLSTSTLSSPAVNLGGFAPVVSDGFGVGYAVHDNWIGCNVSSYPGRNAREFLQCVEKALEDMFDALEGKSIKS

[8] = SUPPLEMENTARY: PAMPA permeability assay; assay type: physicochemical; conditions: read-out: Permeability

| SMILES | pIC50 [1] | pIC50 [2] | pIC50 [3] | solubility kinetic [4] | logD [5] | pIC50 [6] | pIC50 [7] | Papp [8] |
| --- | --- | --- | --- | --- | --- | --- | --- | --- |
| NS(=O)(=O)c1ccc(C#C[C@H]2CCCCN2C(=O)COc2ccccc2)cc1 | 7.08 | 7.06 | < 4.00 | 8 µg/mL (≈ 20.1 µM) | 3.01 | < 4.00 | < 4.00 | 4.11 ×10⁻⁶ cm/s |
| O=C1COc2cc(C#C[C@H]3CCCCN3C(=O)COc3ccccc3)ccc2N1 | 6.69 | 6.81 | < 4.00 | 2 µg/mL (≈ 5.12 µM) | 3.51 | < 4.00 | < 4.00 | 1.09 ×10⁻⁶ cm/s |
| O=C(COc1ccccc1)N1CCCC[C@@H]1c1nnn(-c2ccc3[nH]ccc3c2)n1 | 6.79 | 6.88 | < 4.00 | < 1 µg/mL | 3.88 | < 4.00 | 4.32 | 2.27 ×10⁻⁶ cm/s |
| CC(=O)Nc1ccc(-n2nnc([C@H]3CCCCN3C(=O)COc3ccccc3)n2)cc1 | 6.32 | 6.97 | < 4.00 | 50 µg/mL (≈ 119 µM) | 3.14 | 4.11 | 4.30 | 2.71 ×10⁻⁶ cm/s |
| NC(=O)c1ccc(C#C[C@H]2CCCCN2C(=O)COc2ccccc2)cc1 | 6.77 | 7.12 | 5.01 | 18 µg/mL (≈ 49.7 µM) | 2.85 | < 4.00 | 4.38 | 2.96 ×10⁻⁶ cm/s |
| COc1ccc(Cl)cc1Cc1cn(C)c2ccc(C(=O)Nc3nc(CC(=O)O)cs3)cc12 | 7.26 | 7.39 | 5.62 | 19 µg/mL (≈ 40.4 µM) | 2.39 | < 4.00 | < 4.00 | 0.51 ×10⁻⁶ cm/s |
| COc1ccc(Cl)cc1Cc1cn(C)c2ccc(C(=O)Nc3ccc(CC(=O)O)cc3)cc12 | 6.92 | 6.89 | 5.61 | 44 µg/mL (≈ 95 µM) | 2.7 | < 4.00 | < 4.00 | 0.86 ×10⁻⁶ cm/s |
| O=C(COc1ccccc1)N1CCCC[C@@H]1c1noc(-c2cccc(-n3cn[nH]c3=O)c2)n1 | 6.48 | 7.23 | < 4.00 | 48 µg/mL (≈ 108 µM) | 2.35 | < 4.00 | 4.92 | 3.47 ×10⁻⁶ cm/s |
| O=C1CN(c2cccc(-c3nc([C@H]4CCCCN4C(=O)COc4ccccc4)no3)c2)C(=O)N1 | 6.99 | 7.19 | < 4.00 | 127 µg/mL (≈ 275 µM) | 2.62 | 4.23 | 4.99 | 3.43 ×10⁻⁶ cm/s |
| O=C(COc1ccccc1)N1CCCC[C@@H]1c1noc(-c2cccc(N3CCCS3(=O)=O)c2)n1 | 6.79 | 7.17 | < 4.00 | < 1 µg/mL | 2.89 | < 4.00 | < 4.00 | 1 ×10⁻⁶ cm/s |
| O=C1CCCN1c1cccc(-c2nc([C@H]3CCCCN3C(=O)COc3ccccc3)no2)c1 | 6.78 | 6.85 | < 4.00 | 9 µg/mL (≈ 20.2 µM) | 3.07 | < 4.00 | 4.42 | 2.33 ×10⁻⁶ cm/s |
